Target: human F508del-CFTR (Homo sapiens, UniProt P13569, DEL508-508)
Test: F508del-CFTR cell surface expression (corrector activity), DiscoveRx ß-galactosidase complementation chemiluminescence assay in recombinant U2OS cell line;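 note: U2OS cells co-expressing ProLink-tagged F508del-CFTR and a membrane-anchored enzyme acceptor, where more surface CFTR restores β-galactosidase activity measured by chemiluminescence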
Details: for EC50: EC50, F508del-CFTR cell surface expression; for Emax: U2OS
[1] = U2OS cells, 16h compound incubation, geomean values
[2] = in relation to Emax of corrector lumacaftor (=100%), arithmetic mean values
[3] = U2OS cell line, 16h compound incubation, geomean values
[4] = in relation to the Emax of the corrector lumacaftor (=100%), U2OS cell line, 16h compound incubation, arithmetic mean values

Chain of human F508del-CFTR (P13569 with tags, fused parts or gaps DEL508-508): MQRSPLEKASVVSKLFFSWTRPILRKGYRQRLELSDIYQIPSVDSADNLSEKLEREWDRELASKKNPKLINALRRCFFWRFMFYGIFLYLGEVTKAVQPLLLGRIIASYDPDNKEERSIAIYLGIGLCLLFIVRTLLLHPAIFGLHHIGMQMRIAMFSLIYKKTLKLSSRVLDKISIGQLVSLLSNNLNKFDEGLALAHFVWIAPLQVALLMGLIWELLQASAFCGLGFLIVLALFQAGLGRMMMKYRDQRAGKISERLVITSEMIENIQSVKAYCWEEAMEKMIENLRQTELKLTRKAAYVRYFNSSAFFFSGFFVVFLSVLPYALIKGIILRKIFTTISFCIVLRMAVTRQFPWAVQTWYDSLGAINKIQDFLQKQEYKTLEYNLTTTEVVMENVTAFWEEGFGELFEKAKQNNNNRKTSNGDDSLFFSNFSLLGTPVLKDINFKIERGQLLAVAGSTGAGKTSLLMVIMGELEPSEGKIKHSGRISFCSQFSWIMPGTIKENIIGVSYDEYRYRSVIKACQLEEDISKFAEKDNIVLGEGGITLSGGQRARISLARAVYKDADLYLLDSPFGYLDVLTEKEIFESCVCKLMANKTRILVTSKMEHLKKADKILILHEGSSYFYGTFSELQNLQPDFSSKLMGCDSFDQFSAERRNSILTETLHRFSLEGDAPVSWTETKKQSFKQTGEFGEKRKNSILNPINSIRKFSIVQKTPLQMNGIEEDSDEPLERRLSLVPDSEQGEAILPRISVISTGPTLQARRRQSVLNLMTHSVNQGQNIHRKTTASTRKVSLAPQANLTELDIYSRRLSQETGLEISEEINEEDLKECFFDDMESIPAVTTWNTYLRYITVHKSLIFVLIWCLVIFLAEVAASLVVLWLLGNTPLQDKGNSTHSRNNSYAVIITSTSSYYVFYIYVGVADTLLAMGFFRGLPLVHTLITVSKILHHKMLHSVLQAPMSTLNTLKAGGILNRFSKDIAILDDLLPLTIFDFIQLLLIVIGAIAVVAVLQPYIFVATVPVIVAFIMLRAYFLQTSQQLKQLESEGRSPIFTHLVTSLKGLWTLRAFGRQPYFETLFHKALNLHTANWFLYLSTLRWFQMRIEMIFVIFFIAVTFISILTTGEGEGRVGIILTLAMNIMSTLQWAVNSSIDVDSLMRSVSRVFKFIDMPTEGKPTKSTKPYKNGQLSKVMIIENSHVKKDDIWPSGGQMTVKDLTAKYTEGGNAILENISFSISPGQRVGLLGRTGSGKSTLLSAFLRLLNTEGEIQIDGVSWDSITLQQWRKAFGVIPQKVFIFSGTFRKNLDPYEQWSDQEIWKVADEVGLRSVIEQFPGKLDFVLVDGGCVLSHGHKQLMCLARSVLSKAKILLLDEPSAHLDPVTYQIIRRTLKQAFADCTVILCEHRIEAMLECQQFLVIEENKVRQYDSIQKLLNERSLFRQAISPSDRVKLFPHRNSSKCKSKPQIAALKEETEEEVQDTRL

SMILES	EC50 [1] [nM]	Emax [2] [%]	EC50 [3] [nM]	Emax [4] [%]	other results
CC(C)C[C@H]1C(=O)N2CCCC[C@H]2C(=O)N[C@H](Cc2ccccc2)COc2cnc3ccccc3c2C(=O)N[C@H](C(=O)NCCc2cccc(-n3nccn3)c2)CC(=O)N1C [Example 462, (9S,13S,19aS,22R)-N-(3-(2H-1,2,3-triazol-2-yl)phenethyl)-22-benzyl-13-isobutyl-12-methyl-7,11,14,20-tetraoxo-7,8,9,10,11,12,13,14,17,18,19,19a,20,21,22,23-hexadecahydro-16H-pyrido[2′,1′:6,7][1]oxa[4,7,10,14]tetraazacycloheptadecino[17,16-c]quinoline-9-carboxamide]	345	130			
COc1cccc(C(F)(F)CNC(=O)[C@@H]2CC(=O)N(C)[C@@H](CC(C)C)C(=O)N(C)C3(CC3)C(=O)N[C@H](Cc3ccccc3)COc3cnc4ccccc4c3C(=O)N2)c1 [Example 175, (3′S,7′S,13′R)-13′-benzyl-N-(2,2-difluoro-2-(3-methoxyphenyl)ethyl)-7′-isobutyl-6′,9′-dimethyl-1′,5′,8′,11′-tetraoxo-2′,3′,4′,5′,6′,7′,8′,9′,11′,12′,13′,14′-dodecahydro-1′H-spiro[cyclopropane-1,10′-[1]oxa[4,7,10,14]tetraazacycloheptadecino[17,16-c]quinoline]-3′-carboxamide]			229	179	
COc1cccc(CCNC(=O)[C@@H]2CC(=O)N(C)[C@@H](CC(C)C)C(=O)N(CCC3CCCCC3)CC(=O)N[C@H](Cc3ccccc3)COc3cnc4ccccc4c3C(=O)N2)c1 [Example 315, (3S,7S,13R)-13-benzyl-9-(2-cyclohexylethyl)-7-isobutyl-N-(3-methoxyphenethyl)-6-methyl-1,5,8,11-tetraoxo-1,2,3,4,5,6,7,8,9,10,11,12,13,14-tetradecahydro-[1]oxa[4,7,10,14]tetraazacycloheptadecino[17,16-c]quinoline-3-carboxamide]			115	349	
CC(C)C[C@H]1C(=O)N(CCC2CCCCC2)CC(=O)N[C@H](Cc2ccccc2)COc2cnc3c(F)cccc3c2C(=O)N[C@H](C(=O)NCCc2ccc3c(c2)OCO3)CC(=O)N1C [Example 382, (3S,7S,13R)-N-(2-(benzo[d][1,3]dioxol-5-yl)ethyl)-13-benzyl-9-(2-cyclohexylethyl)-18-fluoro-7-isobutyl-6-methyl-1,5,8,11-tetraoxo-1,2,3,4,5,6,7,8,9,10,11,12,13,14-tetradecahydro-[1]oxa[4,7,10,14]tetraazacycloheptadecino[17,16-c]quinoline-3-carboxamide]			44	264	
CC(C)C[C@H]1C(=O)N(C)CC(=O)N[C@H](Cc2ccccc2)COc2cc3c(cc2C(=O)N[C@H](C(=O)NCCc2ccc4c(c2)OCCO4)CC(=O)N1C)OCO3 [Example 226, (7R,13S,17S)-7-benzyl-N-(2-(2,3-dihydrobenzo[b][1,4]dioxin-6-yl)ethyl)-13-isobutyl-11,14-dimethyl-9,12,15,19-tetraoxo-6,7,8,9,10,11,12,13,14,15,16,17,18,19-tetradecahydro-[1,3]dioxolo[4′,5′:4,5]benzo[1,2-p][1]oxa[4,7,10,14]tetraazacycloheptadecine-17-carboxamide]			520	213	
COc1nccc2c1C(=O)N[C@H](C(=O)NCCc1cc(C)no1)CC(=O)N(C)[C@@H](CC(C)C)C(=O)N1CCN(c3ccccc3)C[C@H]1C(=O)N[C@H](Cc1ccccc1)CO2 [Example 550, (7S,11S,20R,22aS)-20-benzyl-7-isobutyl-14-methoxy-8-methyl-N-(2-(3-methylisoxazol-5-yl)ethyl)-6,9,13,22-tetraoxo-2-phenyl-1,3,4,6,7,8,9,10,11,12,13,19,20,21,22,22a-hexadecahydro-2H-pyrazino[2,1-f]pyrido[3,4-p][1]oxa[4,7,10,14]tetraazacycloheptadecine-11-carboxamide]	687	129			
COc1cccc(CCNC(=O)[C@@H]2CC(=O)N(C)[C@@H](CC(C)C)C(=O)N(C)C3(CC3)C(=O)N[C@H](Cc3ccccc3)COc3ccc4nc(C)oc4c3C(=O)N2)c1 [Example 628, (8′R,14′S,18′S)-8′-benzyl-14′-isobutyl-N-(3-methoxyphenethyl)-2′,12′,15′-trimethyl-10′,13′,16′,20′-tetraoxo-7′,8′,9′,10′,13′,14′,15′,16′,17′,18′,19′,20′-dodecahydro-12′H-spiro[cyclopropane-1,11′-oxazolo[4′,5′:5,6]benzo[1,2-p][1]oxa[4,7,10,14]tetraazacycloheptadecine]-18′-carboxamide]	363	355			
CCc1nc(CCNC(=O)[C@@H]2CC(=O)N(C)[C@@H](CC(C)C)C(=O)N3CCOC[C@@H]3C(=O)N[C@H](Cc3ccccc3)COc3ccc4ccccc4c3C(=O)N2)no1 [Example 44, (4aR,7R,18S,22S)-7-benzyl-N-(2-(5-ethyl-1,2,4-oxadiazol-3-yl)ethyl)-22-isobutyl-21-methyl-5,16,20,23-tetraoxo-1,2,4,4a,5,6,7,8,16,17,18,19,20,21,22,23-hexadecahydronaphtho[1,2-p][1,4]oxazino[3,4-f][1]oxa[4,7,10,14]tetraazacycloheptadecine-18-carboxamide]			571	247	
COc1cc(OC)c2c(c1)OC[C@@H](Cc1ccccc1)NC(=O)CN(CCC1CCCCC1)C(=O)[C@H](C)N(C)C(=O)C[C@@H](C(=O)NCCc1ccc3c(c1)OCO3)NC2=O [Example 272, (3R,9S,13S)-N-(2-(benzo[d][1,3]dioxol-5-yl)ethyl)-3-benzyl-7-(2-cyclohexylethyl)-16,18-dimethoxy-9,10-dimethyl-5,8,11,15-tetraoxo-2,3,4,5,6,7,8,9,10,11,12,13,14,15-tetradecahydrobenzo[p][1]oxa[4,7,10,14]tetraazacycloheptadecine-13-carboxamide]			374	176	
COc1cc(CCNC(=O)[C@@H]2CC(=O)N(C)[C@@H](CC(C)C)C(=O)N3CCCC[C@@H]3C(=O)N[C@H](Cc3ccccc3)COc3ccc4oc(C)nc4c3C(=O)N2)cc(OC)c1 [Example 368, (8S,12S,18aR,21R)-21-benzyl-N-(3,5-dimethoxyphenethyl)-12-isobutyl-4,11-dimethyl-6,10,13,19-tetraoxo-6,7,8,9,10,11,12,13,16,17,18,18a,19,20,21,22-hexadecahydro-15H-oxazolo[5′,4′:5,6]benzo[1,2-p]pyrido[2,1-f][1]oxa[4,7,10,14]tetraazacycloheptadecine-8-carboxamide]			918	147	
CC(C)C[C@H]1C(=O)N(CCC2CCCCC2)CC(=O)N[C@H](Cc2ccccc2)COc2cnccc2C(=O)N[C@H](C(=O)NCCc2ccc3c(c2)OCO3)CC(=O)N1C [Example 265, (3R,9S,13S)-N-(2-(benzo[d][1,3]dioxol-5-yl)ethyl)-3-benzyl-7-(2-cyclohexylethyl)-9-isobutyl-10-methyl-5,8,11,15-tetraoxo-2,3,4,5,6,7,8,9,10,11,12,13,14,15-tetradecahydropyrido[4,3-p][1]oxa[4,7,10,14]tetraazacycloheptadecine-13-carboxamide]			266	106	
CC(C)C[C@H]1C(=O)N2CCCC[C@@H]2C(=O)N[C@H](Cc2ccccc2)COc2nc3ccccn3c2C(=O)N[C@H](C(=O)NCCc2c(F)cccc2F)CC(=O)N1C [Example 484, (7S,11S,22R,24aR)-22-benzyl-N-(2,6-difluorophenethyl)-7-isobutyl-8-methyl-6,9,13,24-tetraoxo-1,3,4,6,7,8,9,10,11,12,13,21,22,23,24,24a-hexadecahydro-2H-pyrido[2,1-f]pyrido[2′,1′:2,3]imidazo[4,5-p][1]oxa[4,7,10,14]tetraazacycloheptadecine-11-carboxamide]	251	117			
COc1nc(C)cc2c1C(=O)N[C@H](C(=O)NCCc1noc(C3CC3)n1)CC(=O)N(C)[C@@H](CC(C)C)C(=O)N(C)[C@H](Cc1nc(C(F)(F)F)no1)C(=O)N[C@H](Cc1ccccc1)CO2 [Example 820, (3R,6R,9S,13S)-3-benzyl-N-(2-(5-cyclopropyl-1,2,4-oxadiazol-3-yl)ethyl)-9-isobutyl-16-methoxy-7,10,18-trimethyl-5,8,11,15-tetraoxo-6-((3-(trifluoromethyl)-1,2,4-oxadiazol-5-yl)methyl)-2,3,4,5,6,7,8,9,10,11,12,13,14,15-tetradecahydropyrido[3,4-p][1]oxa[4,7,10,14]tetraazacycloheptadecine-13-carboxamide]					EC50 (U2OS cells, 16h compound incubation, geomean of several measurements): 49 nM; Emax (in relation to the Emax of the corrector lumacaftor (=100%), U2OS cells, 16h compound incubation, arithmetic mean): 461%
COc1cccc(CCNC(=O)[C@@H]2CC(=O)N(C)[C@@H](CC(C)C)C(=O)N3CCCC[C@@H]3C(=O)N[C@H](Cc3ccccc3)COc3cnc4ccc(Cl)cc4c3C(=O)N2)c1 [Example 528, (9S,13S,19aR,22R)-22-benzyl-5-chloro-13-isobutyl-N-(3-methoxyphenethyl)-12-methyl-7,11,14,20-tetraoxo-7,8,9,10,11,12,13,14,17,18,19,19a,20,21,22,23-hexadecahydro-16H-pyrido[2′,11:6,7][1]oxa[4,7,10,14]tetraazacycloheptadecino[17,16-c]quinoline-9-carboxamide]	321	337			
COc1cccc(CCNC(=O)[C@@H]2CC(=O)N(C)[C@@H](CC(C)C)C(=O)N(CCC3CCCCC3)CC(=O)N[C@H](Cc3ccccc3)COc3ccc4ccccc4c3C(=O)N2)c1 (racemic) [Example 303, (3RS,7S,13R)-13-benzyl-9-(2-cyclohexylethyl)-7-isobutyl-N-(3-methoxyphenethyl)-6-methyl-1,5,8,11-tetraoxo-1,2,3,4,5,6,7,8,9,10,11,12,13,14-tetradecahydronaphtho[1,2-p][1]oxa[4,7,10,14]tetraazacycloheptadecine-3-carboxamide]			180	275	
